Counter-ions that a name gives are not always drawn.
Columns and labels:
HDAC [1] = assay: Inhibition of isolated HDAC, commercial Fluor de Lys assay (HeLa cell nuclear extract); type: biochemical; conditions: 1 μM inhibitor; average of three determinations
Protocol: This is a facile and rapid 96-well plate-based assay that is suitable for use as a high throughput screen. The reaction mixture contains a HeLa cell nuclear extract and a commercial substrate containing acetylated lysine side chains. The substrate and extract are incubated in the presence of the appropriate concentration of the inhibitor. Deacetylation of the substrate followed by mixing with the provided developer generates a fluorophore. Comparison of inhibited vs. control relative fluorescence using a standard plate reader is employed to determine percent HDAC activity remaining. All determinations can be carried out in triplicate, and reported values can be the average of these determinations.
Compounds were evaluated for their ability to inhibit isolated HDAC at 1 μM in the Fluor de Lys™ assay system.

HDAC [2] = assay: as above; type: biochemical; design: dose or concentration left out as unconfirmed; conditions: TSA as positive control
[3] = test system: ML-1 human myelocytic leukemia line; assay: Cell viability in ML-1 cells, MTT assay; type: cell-based; conditions: ML1, 3 days and 7 days of exposure, 0.1 to 100 μM, read-out: IC50, toxicity to ML-1 cells (MTT)
Text: The well characterized ML-1 human myelocytic leukemia cell line was used to obtain the results presented below in the Examples section. This line has a well characterized response to HDAC inhibitors and is amenable for use in rapid in vitro screening of compounds to evaluate growth inhibitory effects. In addition to the ML-1 cells, the well characterized HCT 116 human colon adenocarcinoma may be used. […]
The MTT (3-[4,5-dimethylthiazol-2-yl]2,5-diphenyl tetrazolium bromide) reduction assay for growth inhibition studies may also be employed. […] HCT 116 cells are seeded at a density of 5×10^4 cells/ml and ML-1 cells are seeded at 2×10^4/ml and are treated for a period of 96 hr prior to dye reduction and plate reading. […]
Compound 19 was evaluated in a series of cell viability studies in the ML-1 human myelocytic leukemia line. […] Compound 19, as well as the positive controls TSA and MS-275, were compared at concentrations between 0.1 and 100 μM, and cell viability was determined in the ML-1 cultured cell preparation at 3 days (FIG. 4) and 7 days (FIG. 5) using a standard MTT assay. […] In a separate set experiments, cell viability was determined under the same conditions by direct cell count. […]

[4] = test system: ML-1 human myelocytic leukemia line; assay: Cell viability in ML-1 cells, direct cell count; type: cell-based; conditions: ML1, 3 and 7 days of exposure, read-out: IC50, toxicity to ML-1 cells (direct cell count)
Protocol: ML-1 cells were maintained in RPMI medium supplemented with 10% fetal calf serum, 0.1 mg/mL gentamicin, and 2 mM L-glutamine. 3×10^5 cells/ml were treated with 1 (Wako Pure Chemicals, Richmond, Va.), 2 (Mitsui Pharmaceuticals, Chiba, Japan) and the desired test compound for the concentration and time indicated in the figure legend.
Compound 19 was evaluated in a series of cell viability studies in the ML-1 human myelocytic leukemia line. The results of these studies are outlined in FIGS. 4-7. Compound 19, as well as the positive controls TSA and MS-275, were compared at concentrations between 0.1 and 100 μM, and cell viability was determined in the ML-1 cultured cell preparation at 3 days (FIG. 4) and 7 days (FIG. 5) using a standard MTT assay. […] In a separate set experiments, cell viability was determined under the same conditions by direct cell count. As before, TSA and MS-275 produced significant toxicity at both 3 and 7 days, again with IC50 values less than 10 μM.

| Compound | Inhibition of HDAC at 1 μM (%) (HDAC [1]) | other results |
| --- | --- | --- |
| CN(C)c1ccc(CNCCCCNC(=O)CCCCCCC(=O)NO)cc1 [Compound 12, 7-{4-[4-N,N-(Dimethylamino)benzyl]aminobutyl}-carbamoylheptanohydroxamic Acid] | 33.89 | – |
| Cc1ccc(CNCCCCNC(=O)CCCCCCC(=O)NO)cc1 [Compound 17, 7-{4-[4-(Methyl)benzyl]aminobutyl}carbamoylheptanohydroxamic Acid] | 53.2 | – |
| O=C(CCCCCC(=O)NCCCNCCCCNCCC(c1ccccc1)c1ccccc1)NO [Compound 70] | 46 | – |
| CN(C)c1ccc(CN(CCCNCCCCN)C(=O)CCCCC(=O)NO)cc1 [Compound 14] | 59.99 | Dose-response for inhibition of HDAC (relative potency) (HDAC [2]): essentially equipotent |
| O=C(CCCCCCC(=O)NCCCNCCCNCCCNCCC(c1ccccc1)c1ccccc1)NO [Compound 67] | 55 | – |
| CC(C)(C)c1ccc(CNCCCCNCCCNC(=O)CCCCCCC(=O)NO)cc1 [Compound 15, dihydrobromide] | 49.36 | – |
| Cc1ccc(CNCCCCNC(=O)CCCCC(=O)NO)cc1 [Compound 7, 5-{4-[4-(Methyl)benzyl]aminobutyl}carbamoylpentanohydroxamic Acid] | 44.17 | – |
| CN(C)c1ccc(CN(CCCCN)C(=O)CCCCCCC(=O)NO)cc1 [Compound 18, 7-{[4-(Amino)butyl]-N-[4-(dimethylaminobenzyl)-carbamoyl]}heptanohydroxamic Acid] | 15.6 | – |
| O=C(CCCCC(=O)NCCCCNCc1ccccc1-c1ccccc1)NO [Compound 5, 5-{4-[2-(Phenyl)benzyl]aminobutyl}carbamoylpentanohydroxamic Acid] | 16.34 | – |
| O=C(CCCCC(=O)NCCCNCCCNCCCNCCCNCC1CCCCCC1)NO [Compound 9, 22-(N-[2-(Cycloheptyl)methyl]amino)-6-oxo-7,11,15,19-tetraazadocosanohydroxamic Acid] | 41.03 | – |
| O=C(CCCCC(=O)NCCCNCCCCNCCC(c1ccccc1)c1ccccc1)NO [Compound 20, 15-N-[4-(3,3-diphenyl)propyl]amino-6-oxo-7,11-diazapentadecanohydroxamic Acid dihydrobromide] | 19.75 | – |
| CC(C)(C)c1ccc(CNCCCCNCCCNC(=O)CCCCC(=O)NO)cc1 [Compound 11, 15-N-[(4-tert-Butyl)benzyl]amino-6-oxo-7,11-diazapentadecanohydroxamic Acid dihydrobromide] | 74.86 | Dose-response for inhibition of HDAC (relative potency) (HDAC [2]): essentially equipotent |
| Nc1ccccc1NC(=O)c1ccc(CNC(=O)OCc2cccnc2)cc1 [Compound 2, MS-275] | 100 | IC50 [3]: < 10 µM; IC50 [4]: < 10 µM |
| CN(C)c1ccc(CNCCCCNC(=O)CCCCC(=O)NO)cc1 [Compound 16, 5-{4-[4-N,N-(Dimethyl)aminobenzyl]amino}butylcarbamoylpentanohydroxamic Acid] | 10.32 | – |
| CC(/C=C/C(=O)NO)=C\[C@@H](C)C(=O)c1ccc(N(C)C)cc1 [Compound 1, trichostatin] | 100 | IC50 [3]: < 10 µM; IC50 [4]: < 10 µM |
| CN(C)c1ccc(CN(CCCNCCCCN)C(=O)CCCCCCC(=O)NO)cc1 [Compound 72] | 58 | – |
| O=C(CCCCC(=O)NCCCCN(Cc1ccccc1-c1ccccc1)Cc1ccccc1-c1ccccc1)NO [Compound 10] | 3.74 | – |
| O=C(CCCCCCCCC(=O)NCCCNCCCCNCCC(c1ccccc1)c1ccccc1)NO [Compound 69] | 73 | – |
| CC(C)(C)c1ccc(CNCCCCNCCCNC(=O)CCCCC(=O)O)cc1 [Compound 13] | 1.48 | – |
| CN(C)c1ccc(CCNCCCCNCCCNC(=O)CCCCCCC(=O)NO)cc1 [Compound 68] | 46 | – |
| O=C(CCCCCCCC(=O)NCCCNCCCCNCCC(c1ccccc1)c1ccccc1)NO [Compound 71] | 54 | – |

Source: patent publication US20090182019A1, “Histone deacetylase inhibitors” (The Johns Hopkins University, priority 2005, published 2009)
